Data from patent US20240050463A1, “THERAPEUTIC COMPOSITIONS AND METHODS FOR TREATING HEPATITIS B” (ARBUTUS BIOPHARMA CORPORATION, priority 2016, published 2024).
Structures can show the parent of a compound that is named as a salt. Where two headings read alike, the source gives them in different places.

What was measured:
[1] = test system: HBsAg secretion in HepG2.2.15 cells; assay: Inhibition of HBsAg in HepG2.2.15 cells (CLIA), checkerboard, MacSynergy II; format: cell-based, HBV (human hepatoblastoma HepG2 cells); details: for Additive % Inhibition (HBsAg) versus negative control: Trial 3
Method: In vitro combination studies were conducted using the method of Prichard and Shipman (Prichard M N, and Shipman C Jr., Antiviral Research, 1990, 14(4-5), 181-205; and Prichard M N, et. al., MacSynergy II). The HepG2.2.15 cell culture system is a cell line derived from human hepatoblastoma HepG2 cells that have been stably transfected with the adw2− subtype HBV genome as previously explained in Sells et al. (Proc. Natl. Acad. Sci. U. S. A, 1987. Vol 84:1005-1009). HepG2.2.15 cells secrete Dane-like viral particles, produce HBV DNA, and also produce the viral proteins, hepatitis B e antigen (HBeAg) and hepatitis B surface antigen (HBsAg).
To test the compound combinations, HepG2.2.15 (30,000 cells/well) were plated in 96 well tissue-culture treated microtiter plates in RPMI+L-Glutamine medium supplemented with 1% penicillin-streptomycin, 20 μg/mL geneticin (G418), 10% fetal bovine serum, and incubated in a humidified incubator at 37° C. and 5% CO2 overnight. […] […] The microtiter cell plates were incubated for a duration of 6 days in a humidified incubator at 37° C. and 5% CO2.
Untreated positive control samples (0.5% DMSO in media) were included on each plate in multiple wells. Following a 6 day-incubation, media was removed from treated cells for use in an HBsAg chemiluminescence immunoassay (CLIA) (Autobio Diagnostics, Cat No. CL0310-2). An HBsAg standard curve was generated to verify that the levels of HBsAg quantification were within the detection limits of the assay. The remaining inhibitor-treated cells were assessed for cytotoxicity by determination of the intracellular adenosine triphosphate (ATP) using a Cell-Titer Glo reagent (Promega) as per manufacturers instructions and by microscopic analysis of the cells throughout the duration of inhibitor treatment. Cell viability was calculated as a percentage of the untreated positive control wells.
The plates were read using an EnVision multimode plate reader (PerkinElmer Model 2104). […] The RLU data from the single compound treated cells were analyzed using XL-Fit module in Microsoft Excel to determine EC50 values using a 4-parameter curve fitting algorithm.

[2] = test system: HBsAg, D type HBV in primary human hepatocytes (PHH); assay: microbe, parasite or virus in culture; format: cell-based; details: Hepatitis B virus, Hepatocyte; for inhibition at 0.00012 µM: TDF 0.12 nM alone; for inhibition at 0.00037 µM: TDF 0.37 nM alone
Method: (§1) The mouse liver perfusion was applied to isolate PHHs. The isolated hepatocytes were further purified by Percoll. The cells were resuspended with culture media and seeded into the 96-well plates (6×10^4 cell/well) or 48-well plates (1.2×10^5 cell/well). The PHHs were infected with a D type HBV one day post seeding (day 1).
(§2) On day 2, the test compounds were diluted and added into the cell culture plates. The culture media containing the compounds were refreshed every other day. The cell culture supernatants were collected on day 8 for the HBV DNA and antigen determinations.
(§3) The compounds were tested at 7 concentrations, 3-fold dilution, in triplicate.
(§4) Two compounds were tested at 5×5 matrix, in triplicate plates.
(§5) HBsAg/HBeAg in the culture supernatants harvested on days 8 were measured by the HBsAg/HBeAg ELISA kit (Autobio) according to the manual. The samples were diluted with PBS to get the signal in the range of the standard curve. The inhibition rates were calculated with the formula below. The combination effect was analyzed by the MacSynergy software.
% Inh. HBsAg=[1−HBsAg quantity of sample/HBV quantity of DMSO control]×100.

[3] = test system: D type HBV in primary human hepatocytes (PHH); assay: HBV DNA in culture supernatants of HBV-infected primary human hepatocytes (qPCR), MacSynergy; format: cell-based; details: for inhibition at 0.00012 µM / inhibition at 0.00037 µM / inhibition at 0.00333 µM / inhibition at 0.01 µM: Hepatitis B virus, Hepatocyte; for inhibition at 0.00012 µM: TDF 0.12 nM alone; for inhibition at 0.00037 µM: TDF 0.37 nM alone; for inhibition at 0.00333 µM: TDF 3.33 nM alone; for inhibition at 0.01 µM: TDF 10.00 nM alone; for AVERAGE % INHIBITION: HBV DNA, COMPOUND 25 0.00 nM
Method: as §1, §2, §3, §4
DNA in the culture supernatants harvested on days 8 were isolated with QIAamp 96 DNA Blood Kit (Qiagen-51161). For each sample, 100 μl of the culture supernatants was used to extract DNA. The DNA was eluted with 100 μl, 150 μl or 180 μl of AE. HBV DNA in the culture supernatants was quantified by qPCR. The combination effect was analyzed by the MacSynergy software. The primers are described below.

[4] = test system: HBeAg, D type HBV in primary human hepatocytes (PHH); assay: microbe, parasite or virus in culture; format: cell-based; details: Hepatitis B virus, Hepatocyte, read-out: Inhibitor B EC50, HBeAg endpoint; determined in an earlier separate experiment
Method: as §1, §2, §3, §4, §5
% Inh. HBeAg=[1−HBeAg quantity of sample/HBV quantity of DMSO control]×100.

[5] = test system: HBV rcDNA in HepDE19 cells; assay: Inhibition of rcDNA in HepDE19 cells (bDNA assay), checkerboard, MacSynergy II; format: cell-based, HBV (human hepatoma cell line); parameters: key to ADDITIVE INHIBITION: % inhibition of rcDNA production; details: Compound 3 0 μM
Method: In vitro combination studies were conducted using the method of Prichard and Shipman (Prichard M N, and Shipman C Jr., Antiviral Research, 1990, 14(4-5), 181-205; and Prichard M N, et. al., MacSynergy II). HepDE19 cell culture system is a HepG2 (human hepatocarcinoma) derived cell line that supports HBV DNA replication and cccDNA formation in a tetracycline (Tet)-regulated manner and produces HBV rcDNA and a detectable reporter molecule dependent on the production and maintenance of cccDNA (Guo et al 2007. J. Virol 81:12472-12484). HepDE19 (50,000 cells/well) were plated in 96 well collagen-coated tissue-culture treated microtiter plates in DMEM/F12 medium supplemented with 10% fetal bovine serum, 1% penicillin-streptomycin and 1 μg/ml tetracycline and incubated in a humidified incubator at 37° C. and 5% CO2 overnight. Next day, the cells were switched to fresh medium without tetracycline and incubated for 4 hrs at 37° C. and 5% CO2. […] The two inhibitors were tested both singly as well as in combinations in a checkerboard fashion such that each concentration of inhibitor A was combined with each concentration of inhibitor B to determine their combination effects on inhibition of rcDNA production. Following a 7 day-incubation of cells with compound combinations, the level of rcDNA present in the inhibitor-treated wells was measured using a Quantigene 2.0 bDNA assay kit (Affymetrix, Santa Clara, CA) with HBV specific custom probe set and manufacturers instructions. […] The RLU data from the single compound treated cells were analyzed using XL-Fit module in Microsoft Excel to determine EC50 values using a 4-parameter curve fitting algorithm. Concurrently, the effect of compounds on cell viability was assessed using replicate plates, plated at a density of 5,000 cells/well and incubated for 4 days, to determine the ATP content as a measure of cell viability using the cell-titer glo reagent (CTG; Promega Corporation, Madison, WI) as per manufacturer's instructions.
In vitro combination studies were conducted using the method of Prichard and Shipman (Prichard M N, Shipman C, Jr., Antiviral Res, 14, 181-205 (1990)). The HepDE19 cell line was developed as described in Guo et al. (Guo et al., J Virol, 81, 12472-12484 (2007)). It is a human hepatoma cell line stably transfected with the HBV genome, and which can express HBV pregenomic RNA and support HBV rcDNA (relaxed circular DNA) synthesis in a tetracycline-regulated manner. HepDE19 cells were plated in 96 well tissue-culture treated microtiter plates in DMEM/F12 medium supplemented with 10% fetal bovine serum+1% penicillin-streptomycin without tetracycline and incubated in a humidified incubator at 37° C. and 5% CO2 overnight. […] The two inhibitors were tested both singly as well as in combinations in a checkerboard fashion such that each concentration of inhibitor A was combined with each concentration of inhibitor B to determine their combination effects on inhibition of rcDNA production. Following a 48 hour-incubation, the level of rcDNA present in the inhibitor-treated wells was measured using a bDNA assay (Affymetrix) with HBV specific custom probe set and manufacturers instructions. […] Concurrently, the effect of inhibitor combinations on cell viability was assessed using replicate plates that were used to determine the ATP content as a measure of cell viability using the Cell-TiterGlo reagent (Promega) as per manufacturer's instructions.
In vitro combination studies were conducted using the method of Prichard and Shipman (1990) (Prichard M N, Shipman C, Jr. 1990. A three-dimensional model to analyze drug-drug interactions. Antiviral Res 14:181-205 AND Prichard M N. 1992. MacSynergy II, University of Michigan).

[6] = read-out: Additive inhibition, HBsAg
[7] = read-out: Average % inhibition, HBsAg
[8] = read-out: Additive inhibition, HBV DNA
[9] = read-out: Average % inhibition, HBV DNA

In the case of COCCCOc1cc2c(cc1OC)-c1cc(=O)c(C(=O)O)cn1[C@H](C(C)C)C2 [Compound 5], the “Additive % Inhibition (HBsAg) versus negative control” value (from here on “Additive % Inhibition”) ([1]; Compound 5 0.0001 μM alone) is reported as 69.99%, the “Additive % Inhibition” value ([1]; Compound 5 0.000316 μM alone) is reported as 82.39% and the “Additive % Inhibition” value ([1]; Compound 5 0.001 μM alone) is reported as 89.01%. The “Additive % Inhibition” value ([1]; Compound 5 0.00316 μM alone) was 90.26%, the “Additive % Inhibition” value ([1]; Compound 5 0.1 μM alone) was 86.26% and the “Additive % Inhibition” value ([1]; Compound 5 1.0E−05 μM alone) was 46.36%. For the same molecule, the “Additive % Inhibition” value ([1]; Compound 5 1.00E−06 μM alone) was 22.68%, the “Additive % Inhibition” value ([1]; Compound 5 3.16E−06 μM alone) was 34.18% and the “Additive % Inhibition” value ([1]; Compound 5 3.17E−05 μM alone) was 56.34%. It also gave an EC50 ([1]; Hepatitis B virus, HepG2.2.15, Trial 2, HBsAg by CLIA, read-out: Compound 5 EC50) of 5 nM.
CC(C)OC(=O)OCOP(=O)(CO[C@H](C)Cn1cnc2c(N)ncnc21)OCOC(=O)OC(C)C [TDF, tenofovir disoproxil fumarate] was tested, and the inhibition at 0.00012 µM [2, 6] was -3.31%, the inhibition at 0.00012 µM [2, 7] was -3.31% and the inhibition at 0.00037 µM [2, 6] was -3.32%. It also gave an inhibition at 0.00037 µM [2, 7] of -3.32%, an inhibition at 0.00333 µM ([2]; read-out: Additive inhibition, HBsAg, TDF 3.33 nM alone) of -1.28% and an inhibition at 0.01 µM ([2]; read-out: Additive inhibition, HBsAg, TDF 10.00 nM alone) of -6.65%. The inhibition at 0.00333 µM ([2]; read-out: Average % inhibition, HBsAg, TDF 3.33 nM alone) was -1.28%, the inhibition at 0.01 µM ([2]; read-out: Average % inhibition, HBsAg, TDF 10.00 nM alone) was -6.65% and the inhibition at 0.00012 µM [3, 8] was -1.16%. It also gave an inhibition at 0.00012 µM [3, 9] of -1.16%, an inhibition at 0.00037 µM [3, 8] of -6.24% and an inhibition at 0.00037 µM [3, 9] of -6.24%. For the same molecule, the inhibition at 0.00333 µM [3, 8] was 3.15%, the inhibition at 0.00333 µM [3, 9] was 3.15% and the inhibition at 0.01 µM [3, 8] was -15.4%. It also gave an inhibition at 0.01 µM [3, 9] of -15.4%.
O=C(Nc1ccc(F)c(F)c1)c1cc(S(=O)(=O)NC2CCCC2)ccc1F [Compound 22] was tested, and the “AVERAGE % INHIBITION” value ([3]; COMPOUND 22 61.73 nM) was −11.75%, the “AVERAGE % INHIBITION” value ([3]; COMPOUND 22 185.19 nM) was −9.12% and the “AVERAGE % INHIBITION” value ([3]; COMPOUND 22 555.56 nM) was −12.7%. The “AVERAGE % INHIBITION” value ([3]; COMPOUND 22 1666.67 nM) was 17.94% and the “AVERAGE % INHIBITION” value ([3]; COMPOUND 22 5000.00 nM) was 63.06%.
In the case of CNC(=O)N[C@H]1CCOc2c(C(=O)Nc3ccc(F)c(F)c3)ccc(F)c21 [Compound 23], the EC50 ([2]; read-out: Inhibitor B EC50) is reported as 4.36 nM and the EC50 [4] is reported as 4.53 nM.
CCOC(=O)C1=C(CN2CCOCC2)NC(c2nccs2)=NC1c1ccc(F)cc1Br (stereo not drawn) [GLS4] was tested, and the “ADDITIVE INHIBITION” value ([5]; GLS-4 0.007813 μM) was −1.17, the “ADDITIVE INHIBITION” value ([5]; GLS-4 0.01563 μM) was −5.82 and the “ADDITIVE INHIBITION” value ([5]; GLS-4 0.03125 μM) was 7.03. For the same molecule, the “ADDITIVE INHIBITION” value ([5]; GLS-4 0.0625 μM) was 38.95, the “ADDITIVE INHIBITION” value ([5]; GLS-4 0.125 μM) was 77.82 and the “ADDITIVE INHIBITION” value ([5]; GLS-4 0.25 μM) was 94.65. For the same molecule, the “ADDITIVE INHIBITION” value ([5]; GLS-4 0.5 μM) was 97.48, the “ADDITIVE INHIBITION” value ([5]; GLS-4 1 μM) was 98.51 and the “ADDITIVE INHIBITION” value ([5]; GLS-4 2 μM) was 98.22.
